The results in this text go back to publication PMC9898036, “VIP152 is a selective CDK9 inhibitor with pre-clinical in vitro and in vivo efficacy in chronic lymphocytic leukemia” (Leukemia, 2022).

For experiment [1], the system named is CLL patient samples. Put plainly: Western blot of CLL patient samples. The settings on record: 1 µM, 8 h. Type of experiment: cell-based, human. As for the experimental part: Lysate concentration was quantified using Pierce™ BCA Protein Assay Kit (ThermoFiser Scientific – cat. 23225) and proteins were analyzed via immunoblot. A full list of antibodies may be found in the supplementary methods section. All images are representative of three independent experiments.
P-TEFb’s role in regulating transcription through POLII CTD phosphorylation is a canonical function of this complex. To interrogate the transcriptional changes associated with VIP152 treatment, we treated B-cells, isolated from four patients with treatment-naïve CLL, with 1 µM VIP152 or DMSO for two hours followed by fluorescence-assisted cell sorting for 500 live (Sytox^−), CD45^+/CD5^+/CD19^+ cells (Fig. 3A). Our group has previously defined an analysis pipeline, named CLEAR, which identifies evenly distributed reads for differentially expressed gene (DEG) analysis. […] When we looked at the expression of these differentially abundant genes via an unsupervised clustered heatmap, we noted that there was high concordance between the patient samples with clustering dependent on treatment group (Fig. 3C). The treatment did induce decreased transcript abundance of genes previously reported to be controlled by CDK9 activity, namely JUNB, BTG1, and MCL1 [45, 46]. Downregulation of the anti-apoptotic MCL1 (LFC: −1.231056 & p-value = 0.02) likely contributes to the susceptibility of primary CLL cells to apoptosis (Fig. 2F, G). […] It has been established that AU-rich element (ARE) mRNA molecules are under tight temporal regulation and control a variety of cellular processes. Moreover, the relationship between P-TEFb mediated transcription and ARE-bearing mRNA has previously been described. […] We appreciate from our limiting-cell RNA sequencing experiments that the loss of tristetrapolin (ZFP36) transcripts (LFC: −4.02; adjusted p-value: 7.97*10^−40) and the upregulation of ribosomal transcripts, likely correspond to a possible compensatory mechanism by which these cells attempt to improve translational output and maximize transcript maintenance in response to VIP152-induced transcriptional shutdown. […] We looked at transcripts which had been shown by photoactivatable ribonucleoside cross-linking and immunoprecipitation (PAR-CLIP) to interact with ZFP36 [50]. […]
Fig. 3 VIP152 induces rapid transcriptomic changes. […] E–G 7 CLL patient samples were treated for 8 h with 1 µM VIP152 and then analyzed for protein expression by western blot (E, F) and ZFP36, ZFP36L1, and ZFP36L2 expression by qRT-PCR (G). H–L 5 CLL patient samples were treated for 8 h with 1 µM VIP152 and then supplemented with 500 nM Actinomycin-D. RNA was taken at varying timepoints and analyzed via qRT-PCR. M mRNA half-lives of analyzed transcripts in (H–L) as determined by nonlinear regression using a one-phase decay method.
For orientation: A western blot detects proteins with antibodies after separation by electrophoresis.

The target of experiment [2] is RET(M918T) (Homo sapiens, UniProt P07949, M918T). As to the kind of experiment: KINOMEscan: RET(M918T). Type of experiment: binding. Conditions: 100 nM, read-out: Percent Control.
Sequence of RET(M918T) (P07949 29-1114 M918T): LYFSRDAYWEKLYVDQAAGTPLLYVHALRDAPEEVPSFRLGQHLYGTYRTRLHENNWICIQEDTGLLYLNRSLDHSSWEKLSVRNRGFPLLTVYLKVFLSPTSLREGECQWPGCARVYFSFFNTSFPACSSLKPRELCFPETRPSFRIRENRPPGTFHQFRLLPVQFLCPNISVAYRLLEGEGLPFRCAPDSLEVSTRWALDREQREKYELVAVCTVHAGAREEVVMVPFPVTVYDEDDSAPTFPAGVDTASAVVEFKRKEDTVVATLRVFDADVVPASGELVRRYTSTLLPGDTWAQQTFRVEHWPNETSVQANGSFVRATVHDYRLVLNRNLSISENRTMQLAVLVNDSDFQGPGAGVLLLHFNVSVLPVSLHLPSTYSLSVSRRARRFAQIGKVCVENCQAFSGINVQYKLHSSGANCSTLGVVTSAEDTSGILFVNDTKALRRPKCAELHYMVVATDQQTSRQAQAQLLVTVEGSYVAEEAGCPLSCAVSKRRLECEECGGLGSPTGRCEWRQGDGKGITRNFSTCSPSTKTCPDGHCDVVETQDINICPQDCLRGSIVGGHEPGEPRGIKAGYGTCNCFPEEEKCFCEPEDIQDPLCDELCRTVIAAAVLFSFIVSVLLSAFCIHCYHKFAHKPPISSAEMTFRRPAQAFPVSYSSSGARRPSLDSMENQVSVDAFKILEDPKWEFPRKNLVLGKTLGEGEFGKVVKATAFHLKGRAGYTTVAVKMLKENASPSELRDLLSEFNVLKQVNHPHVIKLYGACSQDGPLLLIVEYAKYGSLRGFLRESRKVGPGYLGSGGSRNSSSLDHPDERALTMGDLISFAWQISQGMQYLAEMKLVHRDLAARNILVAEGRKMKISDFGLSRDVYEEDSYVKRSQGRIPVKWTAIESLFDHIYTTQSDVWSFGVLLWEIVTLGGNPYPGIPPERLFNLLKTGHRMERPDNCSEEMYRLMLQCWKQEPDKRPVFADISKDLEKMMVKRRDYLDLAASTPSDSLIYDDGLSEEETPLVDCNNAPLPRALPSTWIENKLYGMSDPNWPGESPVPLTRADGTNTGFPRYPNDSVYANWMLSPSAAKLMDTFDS
Experiment [3] deals with RPS6KA5(Kin.Dom.1-N-terminal) (Homo sapiens, UniProt O75582). As to the kind of experiment: KINOMEscan: RPS6KA5(Kin.Dom.1-N-terminal). It counts as binding. The settings on record: 100 nM, read-out: Percent Control.
Sequence of RPS6KA5(Kin.Dom.1-N-terminal) (O75582 1-387 limits assumed): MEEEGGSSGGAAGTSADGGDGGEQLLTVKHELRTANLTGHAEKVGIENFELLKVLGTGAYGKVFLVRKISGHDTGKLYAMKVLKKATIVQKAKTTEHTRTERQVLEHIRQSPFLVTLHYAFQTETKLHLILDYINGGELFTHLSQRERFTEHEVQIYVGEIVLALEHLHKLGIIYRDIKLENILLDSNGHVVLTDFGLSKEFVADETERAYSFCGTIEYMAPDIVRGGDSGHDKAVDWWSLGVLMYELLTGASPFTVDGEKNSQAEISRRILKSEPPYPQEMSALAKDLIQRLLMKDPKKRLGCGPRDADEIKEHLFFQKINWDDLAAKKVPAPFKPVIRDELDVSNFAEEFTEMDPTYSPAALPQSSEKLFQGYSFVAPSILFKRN
The target of experiment [4] is STK36 (Homo sapiens, UniProt Q9NRP7). Put plainly: KINOMEscan: STK36. Type of experiment: binding. The settings on record: 100 nM, read-out: Percent Control.
Sequence of STK36 (Q9NRP7 whole entry): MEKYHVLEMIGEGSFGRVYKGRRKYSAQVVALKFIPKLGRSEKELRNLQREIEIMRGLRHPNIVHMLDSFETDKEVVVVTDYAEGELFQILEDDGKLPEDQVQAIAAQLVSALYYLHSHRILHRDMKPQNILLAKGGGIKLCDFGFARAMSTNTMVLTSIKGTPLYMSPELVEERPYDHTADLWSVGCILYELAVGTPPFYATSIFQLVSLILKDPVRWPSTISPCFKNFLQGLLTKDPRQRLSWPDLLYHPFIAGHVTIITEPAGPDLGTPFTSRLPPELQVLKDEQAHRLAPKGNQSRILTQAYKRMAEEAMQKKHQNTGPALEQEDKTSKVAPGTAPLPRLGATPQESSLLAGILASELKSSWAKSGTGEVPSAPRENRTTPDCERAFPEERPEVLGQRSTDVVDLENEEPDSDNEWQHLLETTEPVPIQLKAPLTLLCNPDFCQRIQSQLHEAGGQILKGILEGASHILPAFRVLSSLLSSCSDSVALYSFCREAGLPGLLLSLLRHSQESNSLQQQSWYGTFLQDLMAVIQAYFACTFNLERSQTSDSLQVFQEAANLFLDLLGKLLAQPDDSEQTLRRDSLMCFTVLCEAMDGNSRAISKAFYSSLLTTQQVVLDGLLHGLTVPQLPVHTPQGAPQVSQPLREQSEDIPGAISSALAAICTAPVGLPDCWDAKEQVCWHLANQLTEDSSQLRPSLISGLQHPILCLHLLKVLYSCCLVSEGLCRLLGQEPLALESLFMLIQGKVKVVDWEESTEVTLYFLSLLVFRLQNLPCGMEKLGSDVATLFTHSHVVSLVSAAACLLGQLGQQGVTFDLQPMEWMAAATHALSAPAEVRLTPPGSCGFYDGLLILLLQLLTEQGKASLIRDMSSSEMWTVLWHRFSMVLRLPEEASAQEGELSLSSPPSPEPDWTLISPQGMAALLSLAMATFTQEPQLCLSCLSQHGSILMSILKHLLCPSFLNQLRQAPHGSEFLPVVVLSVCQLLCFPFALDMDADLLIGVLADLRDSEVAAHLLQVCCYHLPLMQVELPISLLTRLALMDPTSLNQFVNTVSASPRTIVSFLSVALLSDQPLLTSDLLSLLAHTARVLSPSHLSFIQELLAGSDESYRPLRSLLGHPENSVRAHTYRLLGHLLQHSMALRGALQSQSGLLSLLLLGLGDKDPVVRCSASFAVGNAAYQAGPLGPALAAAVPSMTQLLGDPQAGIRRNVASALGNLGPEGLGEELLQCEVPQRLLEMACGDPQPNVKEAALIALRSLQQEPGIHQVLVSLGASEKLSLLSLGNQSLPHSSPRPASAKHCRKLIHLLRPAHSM
Experiment [5] deals with AURKA (Homo sapiens, UniProt O14965). As to the kind of experiment: KINOMEscan: AURKA. Type of experiment: binding. Conditions: 1000 nM, read-out: Percent Control.
Sequence of AURKA (O14965 whole entry): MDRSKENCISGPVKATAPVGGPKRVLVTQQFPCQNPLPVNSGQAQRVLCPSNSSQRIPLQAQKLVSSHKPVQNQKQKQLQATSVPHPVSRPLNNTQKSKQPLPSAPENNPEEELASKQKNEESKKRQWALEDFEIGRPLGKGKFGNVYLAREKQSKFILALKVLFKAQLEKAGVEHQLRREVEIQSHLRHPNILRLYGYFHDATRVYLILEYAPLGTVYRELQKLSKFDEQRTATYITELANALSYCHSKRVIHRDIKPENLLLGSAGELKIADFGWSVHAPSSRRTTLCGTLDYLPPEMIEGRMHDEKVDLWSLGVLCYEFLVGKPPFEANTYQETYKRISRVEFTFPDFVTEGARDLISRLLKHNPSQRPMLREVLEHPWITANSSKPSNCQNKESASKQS
Experiment [6] deals with CAMK1B (Homo sapiens, UniProt Q6P2M8). Put plainly: KINOMEscan: CAMK1B. Type of experiment: binding. The settings on record: 1000 nM, read-out: Percent Control.
Sequence of CAMK1B (Q6P2M8 whole entry): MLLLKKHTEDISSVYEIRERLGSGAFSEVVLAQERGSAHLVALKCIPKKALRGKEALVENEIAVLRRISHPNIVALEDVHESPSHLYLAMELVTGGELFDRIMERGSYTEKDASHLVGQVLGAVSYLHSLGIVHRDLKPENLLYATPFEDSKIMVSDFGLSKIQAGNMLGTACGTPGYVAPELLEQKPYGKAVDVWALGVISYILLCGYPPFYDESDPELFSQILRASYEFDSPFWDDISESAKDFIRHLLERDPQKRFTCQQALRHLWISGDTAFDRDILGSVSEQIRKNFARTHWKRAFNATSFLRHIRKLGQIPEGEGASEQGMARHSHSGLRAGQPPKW
In experiment [7] the target is DCAMKL2 (Homo sapiens, UniProt Q8N568). As to the kind of experiment: KINOMEscan: DCAMKL2. It counts as binding. The settings on record: 1000 nM, read-out: Percent Control.
In experiment [8] the target is HASPIN (Homo sapiens, UniProt Q8TF76). As to the kind of experiment: KINOMEscan: HASPIN. Type of experiment: binding. Conditions: 1000 nM, read-out: Percent Control.
For experiment [9], the target named is LKB1 (Homo sapiens, UniProt Q15831). As to the kind of experiment: KINOMEscan: LKB1. Type of experiment: binding. Conditions: 1000 nM, read-out: Percent Control.
Sequence of LKB1 (Q15831 whole entry): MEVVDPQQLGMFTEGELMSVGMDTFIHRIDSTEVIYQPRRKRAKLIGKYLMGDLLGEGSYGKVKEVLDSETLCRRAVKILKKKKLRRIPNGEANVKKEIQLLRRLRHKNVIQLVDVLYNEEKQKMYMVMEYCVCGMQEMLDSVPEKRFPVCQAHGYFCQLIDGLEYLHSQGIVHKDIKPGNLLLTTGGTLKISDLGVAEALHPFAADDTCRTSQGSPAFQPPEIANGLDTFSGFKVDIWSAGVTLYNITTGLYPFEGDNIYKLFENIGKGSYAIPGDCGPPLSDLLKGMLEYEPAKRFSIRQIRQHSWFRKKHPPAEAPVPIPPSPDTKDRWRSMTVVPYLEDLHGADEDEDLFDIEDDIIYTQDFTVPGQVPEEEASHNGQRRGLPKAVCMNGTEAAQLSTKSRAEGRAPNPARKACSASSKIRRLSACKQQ
The target of experiment [10] is MAP3K3 (Homo sapiens, UniProt Q99759). Put plainly: KINOMEscan: MAP3K3. Type of experiment: binding. The settings on record: 1000 nM, read-out: Percent Control.
Sequence of MAP3K3 (Q99759 whole entry): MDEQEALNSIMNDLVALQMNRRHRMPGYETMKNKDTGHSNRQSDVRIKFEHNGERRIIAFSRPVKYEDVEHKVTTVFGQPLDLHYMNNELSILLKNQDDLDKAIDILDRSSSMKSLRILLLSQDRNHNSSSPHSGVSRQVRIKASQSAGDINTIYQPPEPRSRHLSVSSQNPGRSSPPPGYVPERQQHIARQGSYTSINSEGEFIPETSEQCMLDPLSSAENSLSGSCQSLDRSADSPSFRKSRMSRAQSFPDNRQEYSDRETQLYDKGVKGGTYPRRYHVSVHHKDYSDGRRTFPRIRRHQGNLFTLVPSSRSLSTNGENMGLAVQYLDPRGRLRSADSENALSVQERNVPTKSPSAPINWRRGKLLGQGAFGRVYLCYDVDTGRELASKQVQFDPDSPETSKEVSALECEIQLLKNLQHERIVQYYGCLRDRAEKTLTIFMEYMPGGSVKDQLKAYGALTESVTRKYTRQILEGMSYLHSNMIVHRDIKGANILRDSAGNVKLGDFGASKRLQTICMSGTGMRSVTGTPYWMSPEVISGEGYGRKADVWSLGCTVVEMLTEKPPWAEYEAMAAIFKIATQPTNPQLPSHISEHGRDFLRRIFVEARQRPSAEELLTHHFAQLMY
The target of experiment [11] is MEK3 (Homo sapiens, UniProt P46734). Put plainly: KINOMEscan: MEK3. It counts as binding. The settings on record: 1000 nM, read-out: Percent Control.
Sequence of MEK3 (P46734 whole entry): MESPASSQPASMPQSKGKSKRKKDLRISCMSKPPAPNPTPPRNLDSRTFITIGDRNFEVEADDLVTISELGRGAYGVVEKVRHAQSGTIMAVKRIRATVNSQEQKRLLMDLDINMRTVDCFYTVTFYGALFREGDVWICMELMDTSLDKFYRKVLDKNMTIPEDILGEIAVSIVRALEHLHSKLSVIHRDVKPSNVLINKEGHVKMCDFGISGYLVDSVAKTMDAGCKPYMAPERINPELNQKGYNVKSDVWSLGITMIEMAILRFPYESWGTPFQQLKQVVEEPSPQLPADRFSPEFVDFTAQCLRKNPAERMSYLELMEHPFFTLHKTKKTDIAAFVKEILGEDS

Take `COc1cc(F)ccc1-c1cc(Nc2cc(CS(C)(=N)=O)ccn2)ncc1F` (centres unmarked) [VIP152]: the BTG1 protein entry in experiment [1] was “not”. For the same compound, the JUNB protein entry in [1] was “decrease”. Besides, the MCL1 protein entry in experiment [1] is reported as “decrease”. In experiment [1] (seven CLL patient samples), the “expression of tristetrapolin (ZFP36)” value was “decreased expression”. The remaining binding at 0.1 µM in experiment [2], in experiment [3] and in experiment [4] was 100% each time. Further, the remaining binding at 1 µM in [5] worked out at 41%; in experiment [6], 98%; in [7], 96%; in experiment [8], 99%; in experiment [9], 77%; in experiment [10], 86%. Further, the remaining binding at 1 µM in [11] is 84%.
